{"source": "patent US20240091366A1", "about": "“NOVEL ACID-SENSITIVE APTAMER TRIPTOLIDE CONJUGATE AND APPLICATIONS” (priority 2022, published 2024)", "key": {"[1]": {"test_system": "lung cancer cell line A549", "experiment": "In vivo antitumor activity, lung cancer xenograft in nude mice", "set-up": "species or system mouse; Tumor weight: unit not given here", "settings": "A549 model, once every 2 days, 8 doses", "description": "(§1) The following are the in vivo activity studies conducted in different tumor-bearing mice:\n(§2) A PBS negative control group was set up."}, "[2]": {"experiment": "Body weight during administration, colon cancer model", "protocol": "(§3) Female nude mice were reared for 6-7 weeks under standard environment, colon cancer cells HCT116 were suspended in serum-free medium, and each mouse was inoculated with 5*10^6 tumor cells. When the tumor volume reached 50-100 mm^3, the mice were randomly divided into 4 groups, and were injected with aptamer triptolide conjugate, triptolide, and aptamer by tail vein, respectively, 12 mice in each group. A PBS negative control group was set up. […] The drugs were administered once every 2 days for 8 consecutive doses, and the experiment was ended 24 hours after the last dose. At the end of the experiment, the animals were executed by breaking the cervical vertebrae, and the tumors were stripped and weighed to calculate the tumor growth inhibition rate of the drug. The t-test was used to compare the tumor weight, tumor volume, RTV and other indexes of the animals in each group."}, "[3]": {"test_system": "breast cancer cells MDA-MB-231", "experiment": "In vivo antitumor activity, breast cancer xenograft in nude mice", "set-up": "species or system mouse; Tumor weight: unit not given here", "settings": "MDA-MB-231 model, once every 2 days, 8 doses", "description": "as §1\nThe materials used in the experiments were the same as those tested in 5.1 Colon cancer cell lines, differing only in the tumor strains.\nas §2"}, "[4]": {"experiment": "Body weight during administration, lung cancer model", "protocol": "as §3, with “Experimental protocol: Female” for “Female”, “lung” for “colon”, “cell line A549” for “cells HCT116”, “6*10^6” for “5*10^6”"}, "[5]": {"test_system": "colon cancer cells HCT116", "experiment": "In vivo antitumor activity, colon cancer xenograft in nude mice", "set-up": "species or system mouse; Tumor weight: unit not given here", "settings": "HCT116 model, once every 2 days, 8 doses", "description": "as §1, §2"}, "[6]": {"experiment": "Body weight during administration, breast cancer model", "protocol": "as §3, with “Specific experimental protocol: Female” for “Female”, “breast” for “colon”, “MDA-MB-231” for “HCT116”, “6*10^6” for “5*10^6”"}}}
{"molecule": "CC(C)[C@]12O[C@H]1[C@@H]1O[C@]13[C@]1(O[C@H]1C[C@H]1C4=C(CC[C@@]13C)C(=O)OC4)[C@@H]2O", "note": "[TP, Triptolide]", "values": [{"measurement": "RTV", "setting": "[1]; 10 μM tail vein", "value": "26.1 ± 0.09"}, {"measurement": "T/C (%)", "setting": "[1]; 10 μM tail vein", "value": 51.81, "unit": "%"}, {"measurement": "Tumor inhibition rate (%)", "setting": "[1]; 10 μM tail vein", "value": 27.27, "unit": "%"}, {"measurement": "Tumor weight", "setting": "[1]; 10 μM tail vein", "value": "2.47 ± 0.08"}, {"measurement": "RTV", "setting": "[1]; 30 μM tail vein", "value": "17.91 ± 0.27"}, {"measurement": "T/C (%)", "setting": "[1]; 30 μM tail vein", "value": 31.59, "unit": "%"}, {"measurement": "Tumor inhibition rate (%)", "setting": "[1]; 30 μM tail vein", "value": 48.48, "unit": "%"}, {"measurement": "Tumor weight", "setting": "[1]; 30 μM tail vein", "value": "1.79 ± 0.19"}, {"measurement": "RTV", "setting": "[1]; 50 μM tail vein", "value": "10.92 ± 0.15"}, {"measurement": "T/C (%)", "setting": "[1]; 50 μM tail vein", "value": 89.93, "unit": "%"}, {"measurement": "Tumor inhibition rate (%)", "setting": "[1]; 50 μM tail vein", "value": 63.64, "unit": "%"}, {"measurement": "Tumor weight", "setting": "[1]; 50 μM tail vein", "value": "1.29 ± 0.27"}, {"measurement": "body weights of mice", "setting": "[2]; mouse, in vivo", "value": "basically maintained in the tolerable range of animal toxicity and side-effects"}, {"measurement": "RTV", "setting": "[3]; 10 μM tail vein", "value": "27.18 ± 47"}, {"measurement": "T/C (%)", "setting": "[3]; 10 μM tail vein", "value": 65.57, "unit": "%"}, {"measurement": "Tumor inhibition rate (%)", "setting": "[3]; 10 μM tail vein", "value": 31.78, "unit": "%"}, {"measurement": "Tumor weight", "setting": "[3]; 10 μM tail vein", "value": "2.34 ± 0.39"}, {"measurement": "RTV", "setting": "[3]; 30 μM tail vein", "value": "16.44 ± 31"}, {"measurement": "T/C (%)", "setting": "[3]; 30 μM tail vein", "value": 39.66, "unit": "%"}, {"measurement": "Tumor inhibition rate (%)", "setting": "[3]; 30 μM tail vein", "value": 48.40, "unit": "%"}, {"measurement": "Tumor weight", "setting": "[3]; 30 μM tail vein", "value": "1.77 ± 0.51"}, {"measurement": "RTV", "setting": "[3]; 50 μM tail vein", "value": "12.89 ± 55"}, {"measurement": "T/C (%)", "setting": "[3]; 50 μM tail vein", "value": 31.10, "unit": "%"}, {"measurement": "Tumor inhibition rate (%)", "setting": "[3]; 50 μM tail vein", "value": 74.05, "unit": "%"}, {"measurement": "Tumor weight", "setting": "[3]; 50 μM tail vein", "value": "0.89 ± 0.08"}, {"measurement": "body weights of mice", "setting": "[4]; mouse, in vivo", "value": "basically maintained in the tolerable range of animal toxicity and side-effects"}, {"measurement": "RTV", "setting": "[5]; 10 μM 100 μL tail vein", "value": "23.31 ± 0.31"}, {"measurement": "T/C (%)", "setting": "[5]; 10 μM 100 μL tail vein", "value": 65.57, "unit": "%"}, {"measurement": "Tumor inhibition rate (%)", "setting": "[5]; 10 μM 100 μL tail vein", "value": 25.80, "unit": "%"}, {"measurement": "Tumor weight", "setting": "[5]; 10 μM 100 μL tail vein", "value": "2.31 ± 0.24"}, {"measurement": "RTV", "setting": "[5]; 30 μM 100 μL tail vein", "value": "16.68 ± 0.19"}, {"measurement": "T/C (%)", "setting": "[5]; 30 μM 100 μL tail vein", "value": 46.92, "unit": "%"}, {"measurement": "Tumor inhibition rate (%)", "setting": "[5]; 30 μM 100 μL tail vein", "value": 45.16, "unit": "%"}, {"measurement": "Tumor weight", "setting": "[5]; 30 μM 100 μL tail vein", "value": "1.76 ± 0.13"}, {"measurement": "RTV", "setting": "[5]; 50 μM 100 μL tail vein", "value": "10.09 ± 0.28"}, {"measurement": "T/C (%)", "setting": "[5]; 50 μM 100 μL tail vein", "value": 28.38, "unit": "%"}, {"measurement": "Tumor inhibition rate (%)", "setting": "[5]; 50 μM 100 μL tail vein", "value": 64.51, "unit": "%"}, {"measurement": "Tumor weight", "setting": "[5]; 50 μM 100 μL tail vein", "value": "1.11 ± 0.25"}, {"measurement": "body weights of mice", "setting": "[6]; mouse, in vivo", "value": "basically maintained in the tolerable range of animal toxicity and side-effects"}]}
{"molecule": "AS1411: nucleolin aptamer, single-stranded oligonucleotide, SEQ ID NO: 1 GGTGGTGGTGGTTGTGGTGGTGGTGG", "values": [{"measurement": "RTV", "setting": "[1]; 10 μM tail vein", "value": "34.57 ± 0.18"}, {"measurement": "T/C (%)", "setting": "[1]; 10 μM tail vein", "value": 89.93, "unit": "%"}, {"measurement": "Tumor inhibition rate (%)", "setting": "[1]; 10 μM tail vein", "value": 6.06, "unit": "%"}, {"measurement": "Tumor weight", "setting": "[1]; 10 μM tail vein", "value": "3.16 ± 0.13"}, {"measurement": "RTV", "setting": "[1]; 30 μM tail vein", "value": "31.09 ± 0.27"}, {"measurement": "T/C (%)", "setting": "[1]; 30 μM tail vein", "value": 75.76, "unit": "%"}, {"measurement": "Tumor inhibition rate (%)", "setting": "[1]; 30 μM tail vein", "value": 15.15, "unit": "%"}, {"measurement": "Tumor weight", "setting": "[1]; 30 μM tail vein", "value": "2.88 ± 0.26"}, {"measurement": "RTV", "setting": "[1]; 50 μM tail vein", "value": "26.19 ± 0.38"}, {"measurement": "T/C (%)", "setting": "[1]; 50 μM tail vein", "value": 70.06, "unit": "%"}, {"measurement": "Tumor inhibition rate (%)", "setting": "[1]; 50 μM tail vein", "value": 21.21, "unit": "%"}, {"measurement": "Tumor weight", "setting": "[1]; 50 μM tail vein", "value": "2.61 ± 0.38"}, {"measurement": "body weights of mice", "setting": "[2]; HCT116 model, during 8 times of administration", "value": "basically maintained in the tolerable range of animal toxicity and side-effects"}, {"measurement": "RTV", "setting": "[3]; 10 μM tail vein", "value": "39.29 ± 16"}, {"measurement": "T/C (%)", "setting": "[3]; 10 μM tail vein", "value": 94.79, "unit": "%"}, {"measurement": "Tumor inhibition rate (%)", "setting": "[3]; 10 μM tail vein", "value": 7.00, "unit": "%"}, {"measurement": "Tumor weight", "setting": "[3]; 10 μM tail vein", "value": "3.19 ± 0.27"}, {"measurement": "RTV", "setting": "[3]; 30 μM tail vein", "value": "37.55 ± 34"}, {"measurement": "T/C (%)", "setting": "[3]; 30 μM tail vein", "value": 90.59, "unit": "%"}, {"measurement": "Tumor inhibition rate (%)", "setting": "[3]; 30 μM tail vein", "value": 14.87, "unit": "%"}, {"measurement": "Tumor weight", "setting": "[3]; 30 μM tail vein", "value": "2.92 ± 0.39"}, {"measurement": "RTV", "setting": "[3]; 50 μM tail vein", "value": "35.19 ± 38"}, {"measurement": "T/C (%)", "setting": "[3]; 50 μM tail vein", "value": 84.90, "unit": "%"}, {"measurement": "Tumor inhibition rate (%)", "setting": "[3]; 50 μM tail vein", "value": 18.95, "unit": "%"}, {"measurement": "Tumor weight", "setting": "[3]; 50 μM tail vein", "value": "2.78 ± 0.41"}, {"measurement": "body weights of mice", "setting": "[4]; A549 model, during 8 times of administration", "value": "basically maintained in the tolerable range of animal toxicity and side-effects"}, {"measurement": "RTV", "setting": "[5]; 10 μM 100 μL tail vein", "value": "33.13 ± 0.51"}, {"measurement": "T/C (%)", "setting": "[5]; 10 μM 100 μL tail vein", "value": 93.19, "unit": "%"}, {"measurement": "Tumor inhibition rate (%)", "setting": "[5]; 10 μM 100 μL tail vein", "value": 6.45, "unit": "%"}, {"measurement": "Tumor weight", "setting": "[5]; 10 μM 100 μL tail vein", "value": "2.92 ± 0.33"}, {"measurement": "RTV", "setting": "[5]; 30 μM 100 μL tail vein", "value": "28.56 ± 0.23"}, {"measurement": "T/C (%)", "setting": "[5]; 30 μM 100 μL tail vein", "value": 80.34, "unit": "%"}, {"measurement": "Tumor inhibition rate (%)", "setting": "[5]; 30 μM 100 μL tail vein", "value": 12.91, "unit": "%"}, {"measurement": "Tumor weight", "setting": "[5]; 30 μM 100 μL tail vein", "value": "2.74 ± 0.15"}, {"measurement": "RTV", "setting": "[5]; 50 μM 100 μL tail vein", "value": "26.32 ± 0.15"}, {"measurement": "T/C (%)", "setting": "[5]; 50 μM 100 μL tail vein", "value": 74.04, "unit": "%"}, {"measurement": "Tumor inhibition rate (%)", "setting": "[5]; 50 μM 100 μL tail vein", "value": 16.12, "unit": "%"}, {"measurement": "Tumor weight", "setting": "[5]; 50 μM 100 μL tail vein", "value": "2.66 ± 0.14"}, {"measurement": "body weights of mice", "setting": "[6]; MDA-MB-231 model, during 8 times of administration", "value": "basically maintained in the tolerable range of animal toxicity and side-effects"}]}
